Results: PubChem BioAssay AID278 (DTP/NCI, 2004)
Where “and” joins values, the source holds several entries; their conditions need not be identical. Equal values may be shown once. Inconclusive results are not listed.

Test system: nude mice, A549 intrarenal xenograft, tumor weight change
Assay: NCI In Vivo Anticancer Drug Screen. Data for tumor model A549 Human Adenocarcinoma of Lung with characteristics of Type II Alveolar Epithelial cells (intrarenal inoculation) in NU/NU BALB/C (nude) mice
Details: endpoint: mean tumor weight change, higher = larger tumour
Procedure, shortened: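 Mice bearing transplantable tumors were treated and survival or tumor size recorded. Values are given as treated-group measurement divided by vehicle-control measurement (T/C).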

[1] = dose: 100.0 mg/kg/injection, schedule: Q04DX003 (ip), vehicle: Klucel (hydroxypropylcellulose) (HPC)
[2] = dose: 150.0 mg/kg/injection, schedule: Q04DX003 (ip), vehicle: Klucel (hydroxypropylcellulose) (HPC)
[3] = dose: 200.0 mg/kg/injection, schedule: Q04DX003 (ip), vehicle: Klucel (hydroxypropylcellulose) (HPC)
[4] = dose: 300.0 mg/kg/injection, schedule: Q04DX003 (ip), vehicle: Klucel (hydroxypropylcellulose) (HPC)
[5] = dose: 50.0 mg/kg/injection, schedule: Q04DX003 (ip), vehicle: saline with Tween-80
[6] = dose: 200.0 mg/kg/injection, schedule: Q04DX003 (ip), vehicle: saline with Tween-80
[7] = dose: 100.0 mg/kg/injection, schedule: Q04DX003 (ip), vehicle: saline
[8] = dose: 200.0 mg/kg/injection, schedule: Q04DX003 (ip), vehicle: saline

Compound: CO[C@H](/C(C)=C/C=C/C(C)=C/c1coc(C)n1)[C@H](C)[C@H]1C[C@@H](O)[C@@]2(C)O[C@H]2/C=C/[C@@H](C)[C@@H]2C[C@@H](CC(=O)O2)C[C@H]2O[C@@H]2C(=O)O1
- T/C (dose: 0.07 mg/kg/injection, schedule: Q04DX003 (ip), vehicle: other): 71 % of control
- T/C (dose: 0.12 mg/kg/injection, schedule: Q04DX003 (ip), vehicle: other): 54 % of control
- T/C (dose: 0.13 mg/kg/injection, schedule: Q01DX009 (ip), vehicle: Klucel (hydroxypropylcellulose) (HPC)): 54 % of control
- T/C (dose: 0.18 mg/kg/injection, schedule: Q04DX003 (ip), vehicle: Klucel (hydroxypropylcellulose) (HPC)): 57 % of control
- T/C (dose: 0.2 mg/kg/injection, schedule: Q01DX009 (ip), vehicle: Klucel (hydroxypropylcellulose) (HPC)): 15 % of control
- T/C (dose: 0.2 mg/kg/injection, schedule: Q04DX003 (ip), vehicle: other): 86 % of control
- T/C (dose: 0.3 mg/kg/injection, schedule: Q01DX009 (ip), vehicle: Klucel (hydroxypropylcellulose) (HPC)): 38 % of control
- T/C (dose: 0.3 mg/kg/injection, schedule: Q04DX003 (ip), vehicle: Klucel (hydroxypropylcellulose) (HPC)): 41 % of control
- T/C (dose: 0.33 mg/kg/injection, schedule: Q04DX003 (ip), vehicle: other): 21 % of control
- T/C (dose: 0.5 mg/kg/injection, schedule: Q04DX003 (ip), vehicle: Klucel (hydroxypropylcellulose) (HPC)): 26 % of control
- T/C (dose: 0.83 mg/kg/injection, schedule: Q04DX003 (ip), vehicle: Klucel (hydroxypropylcellulose) (HPC)): 21 % of control

Compound: CCCCCCCCCCCCCCCCCCOCC(CO)OC (stereo not drawn)
- T/C (dose: 150.0 mg/kg/injection, schedule: Q04DX003 (ip), vehicle: saline with Tween-80): 47 % of control and 53 % of control
- T/C (dose: 300.0 mg/kg/injection, schedule: Q04DX003 (ip), vehicle: saline with Tween-80): 56 % of control and 73 % of control

Compound: O=C(NC(Cc1ccc(I)cc1)C(=O)O)c1cccc(Br)c1 (stereo not drawn)
- T/C [1]: 99 % of control
- T/C [2]: 35 % of control
- T/C [3]: 45 % of control
- T/C [4]: 35 % of control

Compound: CC(C)(C)NC(C1=CC(C)(C)c2ccccc2C1=O)c1ccccc1 (stereo not drawn)
- T/C [1]: 107 % of control
- T/C [3]: 65 % of control

Compound: O=C(O)c1cc(C(=O)O)c(C(=O)O)cc1C(=O)O.[NH2-].[NH2-].[NH2-].[NH2-].[Pt+2].[Pt+2]
- T/C (dose: 12.5 mg/kg/injection, schedule: Q04DX003 (ip), vehicle: water): 102 % of control

Compound: Cc1ccc(C(=Nc2ccccc2)N=P(c2ccccc2)(c2ccccc2)c2ccccc2)cc1
- T/C [5]: 90 % of control
- T/C [6]: 82 % of control

Compound: O=c1[nH]cnc2c1cnn2CN1CCOCC1
- T/C (dose: 50.0 mg/kg/injection, schedule: Q04DX003 (ip), vehicle: Klucel (hydroxypropylcellulose) (HPC)): 166 % of control
- T/C [1]: 72 % of control

Compound: C=C(c1ccc(OC)c(OC)c1)c1nccc2cc(OC)c(OC)cc12
- T/C [2]: 50 % of control
- T/C [4]: 62 % of control

Compound: CC#CCOCC(O)CCl (stereo not drawn)
- T/C [7]: 104 % of control
- T/C [8]: 90 % of control
- T/C (dose: 400.0 mg/kg/injection, schedule: Q04DX003 (ip), vehicle: saline): 111 % of control

Compound: Nc1nc(Br)nc2c1ncn2C1CC(O)C(CO)O1 (stereo not drawn)
- T/C (dose: 25.0 mg/kg/injection, schedule: Q04DX003 (ip), vehicle: saline): 92 % of control
- T/C (dose: 50.0 mg/kg/injection, schedule: Q04DX003 (ip), vehicle: saline): 121 % of control
- T/C [7]: 96 % of control
- T/C [8]: 74 % of control

Compound: O=[N+]([O-])c1ccc([I+]c2ccccc2)cc1
- T/C (dose: 18.75 mg/kg/injection, schedule: Q04DX003 (ip), vehicle: Klucel (hydroxypropylcellulose) (HPC)): 35 % of control
- T/C (dose: 37.5 mg/kg/injection, schedule: Q04DX003 (ip), vehicle: Klucel (hydroxypropylcellulose) (HPC)): 101 % of control
- T/C (dose: 75.0 mg/kg/injection, schedule: Q04DX003 (ip), vehicle: Klucel (hydroxypropylcellulose) (HPC)): 51 % of control

Compound: ClC1(Cl)Cc2ccccc21
- T/C [5]: 119 % of control
- T/C (dose: 100.0 mg/kg/injection, schedule: Q04DX003 (ip), vehicle: saline with Tween-80): 57 % of control
- T/C [6]: 119 % of control

Compound: COc1cc(C(C)c2cc3c(cc2OCCO)OCO3)cc(OC)c1OC (stereo not drawn)
- T/C (dose: 125.0 mg/kg/injection, schedule: Q04DX003 (ip), vehicle: suspension in saline): 117 % of control
- T/C (dose: 250.0 mg/kg/injection, schedule: Q04DX003 (ip), vehicle: suspension in saline): 72 % of control

Compound: C=C(Cl)C(=NC(C)(C)C)Nc1ccccc1C
- T/C (dose: 10.0 mg/kg/injection, schedule: Q04DX003 (ip), vehicle: Klucel + Tween-80): 73 % of control
- T/C (dose: 20.0 mg/kg/injection, schedule: Q04DX003 (ip), vehicle: Klucel + Tween-80): 68 % of control
